Patent US4130709A, “Pleuromutilin glycoside derivatives” (Eli Lilly and Company, priority 1977, dated 1978)
≈ marks a conversion by molar mass, not a printed value.

What was measured:
Format in all cases: cell-based
[1] = test system: Staphylococcus aureus (H-Heatley) NRRL B-314; assay: in vitro turbidometric assay (Autoturb Microbiological Assay System) against Staphylococcus aureus; settings: nutrient broth pH 7, approximately 4 hours at 37° C., A-40104 factor A as standard
Protocol: The compounds are conveniently tested against a typical gram-positive organism, Staphylococcus aureus, using a turbidometric assay on a semi-automated system (Autoturb Microbiological Assay System, Elanco) described by N. R. Kuzel and F. W. Kavanagh in J. Pharmaceut. Sci, 60 (5), 764 and 767 (1971). In testing these compounds, the following parameters were used: Staphylococcus aureus (H-Heatley) NRRL B-314 in a nutrient broth medium (pH 7), incubated for approximately 4 hours at 37° C. Test samples and A-40104 factor A, which is used as a standard, were dissolved in water. The standard was presented to the Autoturb carrousel at concentrations of 1.25, 2.50, 3.75, 5.00 and 6.25 mcg/ml. Test compounds were diluted to contain approximately 2.5 to 5.0 mcg of activity per ml, as presented to the carrousel. The units of activity of some of the typical compounds of this invention (R^2 =H in group tested) in this in vitro assay are summarized in Table I

Bacteroides vulgatis = assay: standard agar-dilution test, anaerobic bacteria; settings: Bacteroides vulgatis; 24-hour incubation; read-out: MIC
[2] = test system: Bacteroides melaninogenicus 1856/28; assay: standard agar-dilution test, anaerobic bacteria; settings: Prevotella intermedia; Bacteroides melaninogenicus 1856/28; 24-hour incubation; read-out: MIC
Spiroplasma citri = assay: in vitro inhibition of Spiroplasma citri measured by a color reaction; parameters: key to Activity (color reaction): Red (R) includes complete inhibition; red-orange (RO) indicates partial inhibition; yellow (Y) indicates no inhibition
Protocol: In another important aspect, the compounds of this invention are active against Spiroplasmas. Spiroplasma citri is the causative agent of citrus-stubborn disease; another Spiroplasma, corn-stunt Spiroplasma, affects the growth of corn. Table VII summarizes the in vitro activity of representative compounds of the present invention (R^2 =H in this group) against Spiroplasma citri. In this test, inhibition of S. citri is measured by a color reaction. Red (R) includes complete inhibition; red-orange (RO) indicates partial inhibition; and yellow (Y) indicates no inhibition.

[3] = test system: Peptococcus asaccharolyticus; assay: standard agar-dilution test, anaerobic bacteria; settings: Peptoniphilus asaccharolyticus, 24-hour incubation
[4] = test system: Fusobacterium necrophorum; assay: standard agar-dilution test, anaerobic bacteria; settings: 24-hour incubation, read-out: MIC
[5] = test system: Peptostreptococcus intermedius; assay: standard agar-dilution test, anaerobic bacteria; settings: Peptostreptococcus intermedius; 24-hour incubation; read-out: MIC
Eubacterium aerofaciens = assay: standard agar-dilution test, anaerobic bacteria; settings: Collinsella aerofaciens, 24 h
Actinomyces israelii = assay: standard agar-dilution test, anaerobic bacteria; settings: 24-hour incubation
Peptococcus prevoti = assay: standard agar-dilution test, anaerobic bacteria; settings: Peptococcus prevoti; 24-hour incubation; read-out: MIC
Clostridium perfringens = assay: microbe, parasite or virus in culture; settings: 24 h
[6] = test system: Bacteroides fragilis 1936B; assay: standard agar-dilution test, anaerobic bacteria; settings: Bacteroides fragilis 1936B; 24-hour incubation; read-out: MIC
[7] = test system: Bacteroides melaninogenicus 2736; assay: standard agar-dilution test, anaerobic bacteria; settings: Bacteroides melaninogenicus 2736; 24-hour incubation; read-out: MIC
[8] = test system: Bacteroides fragilis 1877; assay: standard agar-dilution test, anaerobic bacteria; settings: Bacteroides fragilis 1877; 24-hour incubation; read-out: MIC
[9] = test system: Bacteroides thetaiotaomicron; assay: standard agar-dilution test, anaerobic bacteria; settings: 24-hour incubation
Protocol: (§1) Table IV summarizes the activity of typical compounds of this invention, as determined by the standard agar-dilution test.
(§2) *Endpoint read after 24-hour incubation

Clostridium septicum = assay: standard agar-dilution test, anaerobic bacteria; settings: 24-hour incubation
Protocol: as §1, §2

[10] = test system: Peptostreptococcus anaerobius; assay: standard agar-dilution test, anaerobic bacteria; settings: 24-hour incubation
Bacteroides fragilis 111 = assay: standard agar-dilution test, anaerobic bacteria; settings: Bacteroides fragilis 111; 24-hour incubation; read-out: MIC
Fusobacterium symbiosum = assay: standard agar-dilution test, anaerobic bacteria; settings: Fusobacterium, 24 h
Bacteroides corrodens = assay: standard agar-dilution test, anaerobic bacteria; settings: Eikenella corrodens; Bacteroides corrodens; 24-hour incubation; read-out: MIC

C=C[C@]1(C)C[C@@H](OC(=O)CS[C@@H]2O[C@H](COC(C)=O)[C@@H](OC(C)=O)[C@H]2OC(C)=O)[C@]2(C)[C@H](C)CC[C@]3(CCC(=O)[C@H]32)[C@@H](C)[C@@H]1O [Example 41 β-anomer, 14-deoxy-14-[(2,3,5-tri-O-acetyl-β-D-ribofuranosyl)thioacetoxy]mutilin]
Units of Activity [1]: about 450 mcg/mg

CC[C@]1(C)C[C@@H](OC(=O)CS[C@@H]2O[C@H](COC(C)=O)[C@@H](OC(C)=O)[C@H](OC(C)=O)[C@H]2OC(C)=O)[C@]2(C)[C@H](C)CC[C@]3(CCC(=O)[C@H]32)[C@@H](C)[C@@H]1O [Compound 4, 14-deoxy-14-[(2,3,4,6-tetra-O-acetyl-β-D-glucopyranosyl)thioacetoxy]-19,20-dihydromutilin]
MIC (Bacteroides vulgatis): 32 µg/mL (≈ 44 µM)
MIC [2]: 8 µg/mL (≈ 11 µM)
Activity (color reaction) (Spiroplasma citri; 0.01 ppm): Y
Activity (color reaction) (Spiroplasma citri; 0.05 ppm): R
Activity (color reaction) (Spiroplasma citri; 0.1 ppm): R
Activity (color reaction) (Spiroplasma citri; 1.0 ppm): R
MIC [3]: ≤ 0.5 µg/mL
MIC [4]: ≤ 0.5 µg/mL
MIC [5]: 2 µg/mL (≈ 2.75 µM)
MIC (Eubacterium aerofaciens): > 128 µg/mL
MIC (Actinomyces israelii): ≤ 0.5 µg/mL
MIC (Peptococcus prevoti): 8 µg/mL (≈ 11 µM)
MIC (Clostridium perfringens): > 128 µg/mL
MIC [6]: 64 µg/mL (≈ 88 µM)
MIC [7]: 4 µg/mL (≈ 5.5 µM)
Units of Activity [1]: 203 to 220 µg/mg
MIC [8]: 32 µg/mL (≈ 44 µM)
MIC [9]: 64 µg/mL (≈ 88 µM)
MIC (Clostridium septicum): 4 µg/mL (≈ 5.5 µM)
MIC [10]: 1 µg/mL (≈ 1.38 µM)
MIC (Bacteroides fragilis 111): 32 µg/mL (≈ 44 µM)
MIC (Fusobacterium symbiosum): 128 µg/mL (≈ 176 µM)
MIC (Bacteroides corrodens): 32 µg/mL (≈ 44 µM)

C=C[C@]1(C)C[C@@H](OC(=O)CS[C@H]2O[C@H](COC(C)=O)[C@@H](OC(C)=O)[C@H]2OC(C)=O)[C@]2(C)[C@H](C)CC[C@]3(CCC(=O)[C@H]32)[C@@H](C)[C@@H]1O [Example 41 α-anomer, 14-deoxy-14-[(2,3,5-tri-O-acetyl-α-D-ribofuranosyl)thioacetoxy]mutilin]
Units of Activity [1]: about 200 mcg/mg

CC[C@]1(C)C[C@@H](OC(=O)CS[C@@H]2OC[C@@H](O)[C@@H](O)[C@@H]2O)[C@]2(C)[C@H](C)CC[C@]3(CCC(=O)[C@H]32)[C@@H](C)[C@@H]1O [Example 23, 14-deoxy-14-[(β-D-arabinopyranosyl)thioacetoxy]-19,20-dihydromutilin]
Units of Activity [1]: 420 µg/mg

C=C[C@]1(C)C[C@@H](OC(=O)CS[C@H]2OC[C@@H](O)[C@@H](O)[C@H]2O)[C@]2(C)[C@H](C)CC[C@]3(CCC(=O)[C@H]32)[C@@H](C)[C@@H]1O [Example 37, 14-Deoxy-14-[(α-D-ribopyranosyl)thioacetoxy]-mutilin]
Units of Activity [1]: 350 µg/mg

C=C[C@]1(C)C[C@@H](OC(=O)CS[C@@H]2O[C@H](COC(C)=O)[C@@H](O[C@H]3O[C@H](COC(C)=O)[C@@H](OC(C)=O)[C@H](OC(C)=O)[C@H]3OC(C)=O)[C@H](OC(C)=O)[C@H]2OC(C)=O)[C@]2(C)[C@H](C)CC[C@]3(CCC(=O)[C@H]32)[C@@H](C)[C@@H]1O [Example 52, 14-Deoxy-14-[(4-O-(2,3,4,6-tetra-O-acetyl-α-D-glucopyranosyl)-2,3,6-tri-O-acetyl-β-D-glucopyranosyl)thioacetoxy]mutilin]
Units of Activity [1]: 40 µg/mg

C=C[C@]1(C)C[C@@H](OC(=O)CS[C@@H]2OC[C@@H](OC(C)=O)[C@@H](OC(C)=O)[C@@H]2OC(C)=O)[C@]2(C)[C@H](C)CC[C@]3(CCC(=O)[C@H]32)[C@@H](C)[C@@H]1O [Example 20, 14-Deoxy-14-[(2,3,4-tri-O-acetyl-β-D-arabinopyranosyl)thioacetoxy]mutilin]
Units of Activity [1]: 430 µg/mg

C=C[C@]1(C)C[C@@H](OC(=O)CS[C@@H]2OC[C@@H](O)[C@@H](O)[C@@H]2O)[C@]2(C)[C@H](C)CC[C@]3(CCC(=O)[C@H]32)[C@@H](C)[C@@H]1O [Example 22, 14-Deoxy-14-[(β-D-arabinopyranosyl)thioacetoxyl]mutilin]
Units of Activity [1]: 380 µg/mg

CC[C@]1(C)C[C@@H](OC(=O)CS[C@H]2OC[C@@H](O)[C@@H](O)[C@H]2O)[C@]2(C)[C@H](C)CC[C@]3(CCC(=O)[C@H]32)[C@@H](C)[C@@H]1O [Example 39, 14-Deoxy-14-[(α-D-ribopyranosyl)thioacetoxy]-19,20-dihydromutilin]
Units of Activity [1]: 430 to 433 µg/mg

CC[C@]1(C)C[C@@H](OC(=O)CS[C@@H]2OC[C@@H](O)[C@@H](O)[C@H]2O)[C@]2(C)[C@H](C)CC[C@]3(CCC(=O)[C@H]32)[C@@H](C)[C@@H]1O [Example 40, 14-Deoxy-14-[(β-D-ribopyranosyl)thioacetoxy]-19,20-dihydromutilin]
Units of Activity [1]: 1500 µg/mg

C=C[C@]1(C)C[C@@H](OC(=O)CO[C@@H]2OC[C@@H](O)[C@H](O)[C@H]2O)[C@]2(C)[C@H](C)CC[C@]3(CCC(=O)[C@H]32)[C@@H](C)[C@@H]1O [A-40104 factor A, reference compound]
Units of Activity [1]: 446 to 452 µg/mg

CC[C@]1(C)C[C@@H](OC(=O)CS[C@@H]2OC[C@@H](OC(C)=O)[C@@H](OC(C)=O)[C@H]2OC(C)=O)[C@]2(C)[C@H](C)CC[C@]3(CCC(=O)[C@H]32)[C@@H](C)[C@@H]1O
Units of Activity [1]: 480 to 500 µg/mg

CC[C@]1(C)C[C@@H](OC(=O)CS[C@@H]2OC[C@@H](OC(C)=O)[C@@H](OC(C)=O)[C@@H]2OC(C)=O)[C@]2(C)[C@H](C)CC[C@]3(CCC(=O)[C@H]32)[C@@H](C)[C@@H]1O [Example 21, 14-Deoxy-14-[(2,3,4-tri-O-acetyl-β-D-arabinopyranosyl)thioacetoxy]-19,20-dihydromutilin]
Units of Activity [1]: 380 µg/mg

CC[C@]1(C)C[C@@H](OC(=O)CO[C@H]2O[C@H](CO)[C@@H](O)[C@H](O)[C@H]2O)[C@]2(C)[C@H](C)CC[C@]3(CCC(=O)[C@H]32)[C@@H](C)[C@@H]1O [Example 2, 14-deoxy-14-[(α-D-glucopyranosyl)oxyacetoxy]-19,20-dihydromutilin]
Units of Activity [1]: < 100 µg/mg

CC[C@]1(C)C[C@@H](OC(=O)CS[C@@H]2O[C@H](COC(C)=O)[C@@H](O[C@H]3O[C@H](COC(C)=O)[C@@H](OC(C)=O)[C@H](OC(C)=O)[C@H]3OC(C)=O)[C@H](OC(C)=O)[C@H]2OC(C)=O)[C@]2(C)[C@H](C)CC[C@]3(CCC(=O)[C@H]32)[C@@H](C)[C@@H]1O [Example 53]
Units of Activity [1]: 28 µg/mg

C=C[C@]1(C)C[C@@H](OC(=O)CS[C@@H]2OC[C@@H](O)[C@@H](O)[C@H]2O)[C@]2(C)[C@H](C)CC[C@]3(CCC(=O)[C@H]32)[C@@H](C)[C@@H]1O [Example 38, 14-Deoxy-14-[(β-D-ribopyranosyl)thioacetoxy]-mutilin]
Units of Activity [1]: 1070 µg/mg

C=C[C@]1(C)C[C@@H](OC(=O)CS[C@H]2OC[C@@H](OC(C)=O)[C@@H](OC(C)=O)[C@H]2OC(C)=O)[C@]2(C)[C@H](C)CC[C@]3(CCC(=O)[C@H]32)[C@@H](C)[C@@H]1O [Example 36 α-anomer, 14-deoxy-14-[(2,3,4-tri-O-acetyl-α-D-ribopyranosyl)thioacetoxy]mutilin]
Units of Activity [1]: 50 µg/mg
